Data: patent publication US20230011536A1, “MESENCHYMAL STEM CELL DERIVED EXTRACELLULAR VESICLES LOADED WITH AT LEAST ONE PHOTOSENSITIZER AND USES THEREOF FOR THE TREATMENT OF PERITONEAL CARCINOMATOSIS” (priority 2019, published 2023)

What was measured:
[1] = tested on: colorectal peritoneal carcinomatosis (CT26); assay: Survival analysis after PDT in colorectal peritoneal carcinomatosis model; format: in vivo, mouse
Description: (§1) After 24 h, animals from both groups were anesthetized with isoflurane, a midline laparotomy was performed to allow invasive laser irradiation, and were then irradiated using a 650 nm laser at a fluence of 10 J/cm^2 (100 mW/cm^2 for 100 s). Two irradiations spots were successively realized to allow an illumination of the entire cavity and drops of saline were used to keep the tissue moist. A heating device was used to keep body temperature stable throughout the treatment until the animal was woken up. The peritoneum and the skin were separately sutured immediately after irradiation.
(§2) Treatment injection was made 12 days after IP inoculation of CT26, followed by invasive illumination 24 hours after. Six groups were performed for each experimentation: (i) no treatment, (ii) laser, (iii) free mTHPC, (iv) EVs-mTHPC, (v) free mTHPC+laser, (vi) EVs-mTHPC+laser.
Another 10 or 11 mice were selected from each group to evaluate the overall survival until 30 days. The end point was defined as mice death or the cachexia with the loss of 20% of the total weight that required the killing of the animal (as mentioned in the registration).

[2] = tested on: colorectal peritoneal carcinomatosis (CT26); assay: Early effectiveness of PDT in mouse model of colorectal peritoneal carcinomatosis (histology, TUNEL, immunostaining 48 h after illumination); format: in vivo
Description: as §1, §2
Early effectiveness was evaluated 48 hours after illumination to compare: tumoral necrosis, apoptosis, macrophages invasion, lymphocyte recruitment, vascular damage and proliferative index result according to treatment. Long-term effectiveness consisted on a survival analysis function of the treatment.
For immunohistochemical detection of the chosen markers for tumor tissue, sections were deparaffined and subject to antigen retrieval methods validated for each of the primary antibodies.
Antibody expression for each analysis was evaluated by the mean number of positive cells in 3 randomly chosen areas (×40 magnification) for 10-15 nodes by treatment. Quantitative analysis of immunostaining preparation was performed using the color segmentation ImageJ plugin developed by the Biomedical Imaging Group at the EPFL, Switzerland.
TUNEL assay: Cell apoptosis in tumour was detected by a FragEL DNA fragmentation (TUNEL) detection kit (Sigma, Roche, ref 11684795910). In brief the cryostat section were permeabilized with 0.1% Triton and 0.1% (citrate de sodium) in 10×PBS. The slides were then labeled with a TdT reaction mixture for 60 min and were mounted with a mounting solution containing 4′, 6-diamidino-2-phenylindole (DAPI). The apoptotic cells (green) and cell nucleus (blue) was examined using a fluorescence microscopy. The percentage of apoptotic cells was assessed in 2 randomly fields at 40× magnification. The apoptotic index was calculated with image J.
For image-based quantitative analysis of blood vessels, immunofluorescence detection of CD31 was made after one hour incubation with antiCD31 antibody (BD 553370,1/50) and 45 min incubation with second antibody (Alexa Fluor® 488, ThermoFisher, A11006, dilution 1/200)

[3] = mTHPC biodistribution after intraperitoneal injection, colorectal peritoneal carcinomatosis model (CT26); format: in vivo, mouse; settings: for mTHPC level in tumor tissue: 0.5 mg/kg mTHPC, mean±SEM
Description: All animal experiments were performed in agreement with institutional animal use and care after approval by the local Ethics Committee (registration number for the carcinomatosis model experiment: APAFIS-8617). Six-week-old female BALB/c (provided by Charles River, Arbresle, France and weighing 18 g) and C57BL/6 mice were provided with food and water ad libidum, for colon and ovarian model respectively. The animals were allowed to acclimate to the facility for at least one week before being used for experiments. Colorectal model was induced with an intraperitoneal injection of 5·10^4 CT26 cells resuspended in a volume of 200 μL of physiological saline per inoculum. […] Between the days of IP injection and sacrifice, the wellbeing of the mice was checked twice a week through the search of any sign of pain, dehydration, changing in behavior or loss of weight.
Briefly, tumor-bearing animals (with colorectal carcinomatosis) were injected at 0.5 mg/kg mTHPC intraperitoneally. Either at 4 h, 15 h, 24 h or 48 h mice were sacrificed to determine mTHPC accumulation in different organs: tumors, liver, spleen, kidney, intestine, peritoneum, skin and lung. First, organs were weighed and grinded in PBS (1 mL per 10 mg of organ). The amount of 0.8 mL of MeOH per 10 mg of organ was added to the solution and vortexed; then, 0.8 mL of chloroform was added. The solution was centrifuged at 1400 rpm for 10 minutes to allow the separation of the aqueous and chloroform phases. The bottom layer consisting of the chloroform and the solubilized mTHPC was transferred for spectroscopy measurements. Fluorescence emission spectra were obtained by a fluorescence spectrophotometer using 415 nm excitation wavelength.

For `Oc1cccc(-c2c3nc(c(-c4cccc(O)c4)c4ccc([nH]4)c(-c4cccc(O)c4)c4nc(c(-c5cccc(O)c5)c5ccc2[nH]5)CC4)C=C3)c1` [mTHPC, 5,10,15,20-Tetrakis(3-hydroxyphenyl)chlorin], the “dead mice 4 days after laser illumination (lethal toxicity)” value ([1]; +laser, […]) was 91%, the “histological analysis after PDT (liver, kidney)” value ([1]; non-vectorized PDT group) was “hepatic and kidney necrosis” and the “CD8 detection in tumor” value ([2]; +laser) was 1.88%±0.2. For the same compound, the “CD31 expression (fluorescence signal)” value ([2]; +laser) was 0.55·10^7±1.0·10^6, the “TUNEL mean fluorescence per mm^2 of tumor (apoptosis)” value ([2]; +laser) was 2.17±0.2 and the “anti CD3 labeling in tumor (T-lymphocyte infiltration)” value ([2]; +laser) was 2.51%±0.3. For the same compound, the “macrophage intra-tumor invasion (anti F4/80)” value ([2]; +laser) was 41.45%±2.2, the “mean Ki67-index” value ([2]; +laser) was 26.2%±4.5 and the “proliferation index reduced by a factor of” value ([2]; photoactivated (+laser)) was 2. For the same compound, the “CD8 detection in tumor” value ([2]; without laser) was 0.44%±0.07, the “CD31 expression (fluorescence signal)” value ([2]; without laser) was 1.06·10^7±1.4·10^6 and the “TUNEL mean fluorescence per mm^2 of tumor (apoptosis)” value ([2]; without laser) was 0.86±0.4. The “anti CD3 labeling in tumor (T-lymphocyte infiltration)” value ([2]; without laser) was 0.33%±0.07, the “macrophage intra-tumor invasion (anti F4/80)” value ([2]; without laser) was 13.19%±1.4 and the “mean Ki67-index” value ([2]; without laser) was 45.52±3.4%. The “mTHPC level in tumor tissue” value ([3]; 4 h after IP injection) was 0.10±0.01 ng/mg tissue, the “mTHPC level in tumor tissue” value ([3]; 15 h after IP injection) was 0.15±0.04 ng/mg tissue and the “mTHPC level in tumor tissue” value ([3]; 24 h after IP injection) was 0.16±0.05 ng/mg tissue. For the same compound, the “mTHPC level in tumor tissue” value ([3]; 48 h after IP injection) was 0.10±0.00 ng/mg tissue and the “tumor-to-organ ratio, total average” value ([3]; average over all time points) was 2.5.
